Like-named read-outs stand apart in the source and are kept apart here.
Assays:
[1] = cited from earlier work; for pGd: pH 7.4
[2] = in water; cited from earlier work
[3] = Potentiometric titration of the ligand alone: protonation constants and species distribution; assay type: physicochemical
Procedure: (§1) All the studies were performed by potentiometric titrations of the ligand alone or in the presence of a 1:1 Gd/L stoichiometric ratio (Figure 1), which allowed for the determination of the protonation constants of KEMPPr(3,4-HP)3, as well as the stability constants of the formed Gd(III) complexes, from the best fitting of the experimental curves with the Hyperquad program (Table 1). Other Gd-to-ligand molar ratios were not considered in the present study, because it was admitted that species with a 1:2 stoichiometric ratio are present only at quite low concentrations for pH ca 7 [10].
The compound KEMPPr(3,4-HP)3 was synthesized according to the previously published procedure. The GdCl3 stock solution (9.8 × 10^−3 M) was prepared from the gadolinium salt in HCl 0.1 M medium to avoid hydrolysis, and standardized by inductively coupled plasma emission (ICP). The 0.1 M HCl solution used in the calibration of the glass electrode was obtained from a Titrisol ampoule (Merck, Darmstadt, Germany). The precise amount of HCl in the Gd(III) solution was determined by the standard-addition method using 0.1 M HCl (Titrisol). The titrant solution used in the potentiometric titrations was obtained from a carbonate-free 0.1 M KOH commercial ampoule (Titrisol) and standardized by titration with potassium hydrogen phthalate, and rejected whenever the percentage of carbonate (Gran’s method) was higher than 1% of the total amount of base. The potentiometric studies were performed with an automated potentiometric apparatus containing a Crison micropH 2002 millivoltimeter, a Crison microBu 2031 burette (Crison Instruments, Barcelona, Spain) and a Haake thermostatic bath (Haake Technik GmbH, Vreden, Germany, T = 25.0 ± 0.1 °C), controlled by the PASAT program. The glass and Ag/AgCl reference electrodes were previously conditioned in different DMSO/water mixtures of an increasing DMSO % composition (until 50%) and the response of the glass electrode was measured through the determination of the Nernst parameters by Gran’s method, obtained from strong acid–strong base (HCl/KOH) calibrations. […]
The stepwise protonation constants, Ki = [HiL]/[Hi−1L][H] of the ligand, and the global stability constants of the Gd(III) complex, β (GdmHhL) = [GdmHhLl]/[Gd]^m[H]^h[L]^l, were calculated by fitting the potentiometric data with the Hyperquad 2003 software. The gadolinium hydrolysis model and ionic product of water (Kw) were determined under the same experimental conditions (50% (w/w) DMSO/water medium, I = 0.1 M KCl, T = 25.0 ± 0.1 °C) and the values obtained for the stability constants (log β (GdH−2) = −15.17, log β (GdH−3) = −24.06) were included in the equilibrium model as well as the value of Kw (10^−14.95). […]

[4] = Potentiometric titration of the 1:1 Gd/L system: stability constants of the Gd(III) complexes, pGd, species distribution; assay type: physicochemical
Procedure: as §1
Analysis of the potentiometric titration curves (Figure 1), namely those obtained for the Gd(III)/KEMPPr(3,4-HP)3 system under 1:1 (Gd/L) stoichiometry, evidences a change in the deprotonation profile of the ligand due to its coordination to Gd (III). Since some precipitation was detected above pH = 6, the corresponding experimental points were not used in the calculations to obtain the Gd (III) complexation model. The obtained Gd(III) complexation model presents some similarities to that previously found for H3L2 (see Table 1), firstly involving the formation of a bis-chelated GdH4L^4+ species, a GdH2L^2+ tetra-chelated complex, and afterwards the formation of a neutral hexa-coordinated GdL species. […] Concerning the Gd(III)/H3L2 system (in water, CL = CGd = 3.2 × 10^−4 M), the Gd(III) complexation also begins at pH ca 2, and the GdL species forms at pH ca 3.7 and becomes dominant at pH 4.5 [11]. For the Gd (III)/NTP (PrHP)3 system (in water), the GdL species is not involved in the proposed model.
The compound KEMPPr(3,4-HP)3 was synthesized according to the previously published procedure. The GdCl3 stock solution (9.8 × 10^−3 M) was prepared from the gadolinium salt in HCl 0.1 M medium to avoid hydrolysis, and standardized by inductively coupled plasma emission (ICP). The 0.1 M HCl solution used in the calibration of the glass electrode was obtained from a Titrisol ampoule (Merck, Darmstadt, Germany). The precise amount of HCl in the Gd(III) solution was determined by the standard-addition method using 0.1 M HCl (Titrisol). The titrant solution used in the potentiometric titrations was obtained from a carbonate-free 0.1 M KOH commercial ampoule (Titrisol) and standardized by titration with potassium hydrogen phthalate, and rejected whenever the percentage of carbonate (Gran’s method) was higher than 1% of the total amount of base. The potentiometric studies were performed with an automated potentiometric apparatus containing a Crison micropH 2002 millivoltimeter, a Crison microBu 2031 burette (Crison Instruments, Barcelona, Spain) and a Haake thermostatic bath (Haake Technik GmbH, Vreden, Germany, T = 25.0 ± 0.1 °C), controlled by the PASAT program. The glass and Ag/AgCl reference electrodes were previously conditioned in different DMSO/water mixtures of an increasing DMSO % composition (until 50%) and the response of the glass electrode was measured through the determination of the Nernst parameters by Gran’s method, obtained from strong acid–strong base (HCl/KOH) calibrations.
Potentiometric titrations of compound KEMPPr(3,4-HP)3, in the absence or presence of Gd(III), were performed in 50% (w/w) DMSO/water medium at an ionic strength (I) of 0.1 M KCl, T = 25.0 ± 0.1 °C, using 0.1 M KOH titrant. Each titration was repeated three times, for which the total volume was 20 mL, the total concentration of ligand (CL) was 3.2 × 10^−4 M and the Gd^3+/KEMPPr(3,4-HP)3 molar ratios were 0:1 and 1:1.
The stepwise protonation constants, Ki = [HiL]/[Hi−1L][H] of the ligand, and the global stability constants of the Gd(III) complex, β (GdmHhL) = [GdmHhLl]/[Gd]^m[H]^h[L]^l, were calculated by fitting the potentiometric data with the Hyperquad 2003 software. […]

[5] = Literature Gd(III) complex stability constants and pGd of comparison ligands; assay type: physicochemical; conditions: pH = 7, CL = 10^−5 M, CL/CGd = 10, from constants in water
[6] = in water, CL = CGd = 3.2 × 10^−4 M
[7] = physiological pH (7.4), 50% (w/w) DMSO/water
[8] = 50% w/w DMSO/water, CL = 3.2 × 10^−4 M, 1:1
[9] = 50% w/w DMSO/water, T = 25.0 ± 0.1 °C, I = 0.1 M KCl

Compound: O=C(O)CN1CCN(CC(=O)O)CCN(CC(=O)O)CCN(CC(=O)O)CC1 [DOTA, 1,4,7,10-tetraazacyclododecane N,N′,N″,N‴-tetra-acetic acid]
- pGd [1]: 20.4

Compound: O=C(O)CN(CCN(CC(=O)O)CC(=O)O)CCN(CC(=O)O)CC(=O)O [DTPA, diethylenetriamine penta-acetic acid]
- pGd [1]: 19.1

Compound: Cc1c(O)c(=O)ccn1CCCNC(=O)CCC(CCC(=O)NCCCn1ccc(=O)c(O)c1C)(CCC(=O)NCCCn1ccc(=O)c(O)c1C)[N+](=O)[O-] [H3L2]
- difference between log K4 and log K5 [2]: 1.15
- pH at which Gd(III) complexation begins [1, 6]: ~2
- pH at which the GdL species becomes dominant [1, 6]: 4.5
- pH at which the GdL species forms [1, 6]: ~3.7
- log β (GdmHhLl), (m,h,l) = (1,0,1) (log KGdL) ([1]; in water): 21.22(5)
- log β (GdmHhLl), (m,h,l) = (1,2,1) ([1]; in water): 30.03(6)
- log β (GdmHhLl), (m,h,l) = (1,4,1) ([1]; in water): 37.74(4)
- pGd (−log [Gd(III)]) ([1]; pH = 7, CL = 10^−5 M, CL/CGd = 10, in water): 14.3

Compound: Cc1c(O)c(=O)ccn1CCCNC(=O)C1(C)CC(C)(C(=O)NCCCn2ccc(=O)c(O)c2C)CC(C)(C(=O)NCCCn2ccc(=O)c(O)c2C)C1 (centres unmarked) [KEMPPr(3,4-HP)3]
- difference between log K2 and log K3 ([3]; 50% w/w DMSO/water): 1.1
- composition of the solution: H3L species [3, 7]: 99.95%
- composition of the solution: monocharged H4L^+ species [3, 7]: 0.05%
- pH range of predominance of the neutral H3L species ([3]; species distribution, CL = 3.2 × 10^−4 M, 50% (w/w) DMSO/water): 3.4–9.9
- pH at which Gd(III) complexation begins [4, 8]: ~2
- pH at which the GdL complex becomes prevalent [4, 8]: 4.8
- pH at which the neutral GdL complex begins to form [4, 8]: ~3.5
- log β (GdmHhLl), (m,h,l) = (1,0,1) (log β GdL) [4, 9]: 26.59(8)
- log β (GdmHhLl), (m,h,l) = (1,1,1) [4, 9]: 31.30(4)
- log β (GdmHhLl), (m,h,l) = (1,2,1) [4, 9]: 35.17(7)
- log β (GdmHhLl), (m,h,l) = (1,4,1) [4, 9]: 41.35(8)
- log β (GdmHhLl), (m,h,l) = (1,0,1) (log β GdL) ([4]; 50% w/w DMSO/water, T = 25.0 ± 0.1 °C, I = 0.1 M KCl, listed as H3L): 26.59
- pGd (−log [Gd(III)]) ([4]; pH = 6, CL = 10^−5 M, CL/CGd = 10, 50% w/w DMSO/water): 13.2

Compound: Cc1c(O)c(=O)ccn1CCCNC(=O)CCN(CCC(=O)NCCCn1ccc(=O)c(O)c1C)CCC(=O)NCCCn1ccc(=O)c(O)c1C [NTP(PrHP)3]
- pGd (−log [Gd(III)]) [5]: 12.3
- log β (GdmHhLl), (m,h,l) = (1,1,1) (log KGdHL) ([1]; in water): 26.35
- log β (GdmHhLl), (m,h,l) = (1,2,1) ([1]; in water): 31.16
- log β (GdmHhLl), (m,h,l) = (1,3,1) ([1]; in water): 35.69
- log β (GdmHhLl), (m,h,l) = (1,3,2) ([1]; in water): 52.3
- log β (GdmHhLl), (m,h,l) = (1,4,1) ([1]; in water): 39.46
- log β (GdmHhLl), (m,h,l) = (1,5,1) ([1]; in water): 42.8
- log β (GdmHhLl), (m,h,l) = (1,5,2) ([1]; in water): 65.3

Compound: Cn1ccc(C(=O)NCCN(CCNC(=O)c2ccn(C)c(=O)c2O)CCNC(=O)c2ccn(C)c(=O)c2O)c(O)c1=O [TREN-1-Me-3,2-HOPO]
- log KGdL (thermodynamic stability of the Gd(III) complex) [1]: 19.2

Source: article PMC11945079, “Gadolinium Complex with Tris-Hydroxypyridinone as an Input for New Imaging Probes: Thermodynamic Stability, Molecular Modeling and Biodistribution” (Molecules, 2025)
